According to patent US20100297020A1, “PHOSPHORYLATED AND PHOSPHONATED PYRONE ANALOGS FOR THERAPEUTIC TREATMENT” (Limerick Biopharma, Inc., priority 2008, published 2010):
Entries after “also recorded” stand apart in the source; their conditions may differ.

Key:
[1] = test system: BB19 cells, human BCECs (brain capillary endothelial cells); experiment: Tacrolimus uptake assay; assay type: cell-based; conditions: Endothelial cell, 1 h, 0.1 μM test compound, 1 hour incubation, 3H-tacrolimus 34 nM, read-out: cell associated ^3H-tacrolimus uptake, % of control
Protocol: (§1) BB19 cells, human BCECs (brain capillary endothelial cells) immortalized with the E6E7 genes of human papilloma virus, were kindly provided from Jacques G. Prudhomme, Department of Biology, University of California, Riverside, U.S.A. The cells were cultured as monolayer culture in Amniomax™-C100 basal medium (catalog number 17001-157) with Amniomax™-C100 supplement (catalog number 12556-049) (Invitrogen, Basel, CH).
(§2) Cells were seeded onto culture surfaces precoated with 10 μg/cm^2 rat tail collagen type I (BD Bioscience, Allschwil, CH) at a density of approximately 50′000 cells/cm^2 and were cultured in an incubator at 37° C. with 5% CO2, 95% fresh air and saturated humidity. For uptake assays, cells were seeded on precoated 96-well plates. Assays were performed at confluency, after 6 days in culture.
(§3) BB19 cells were seeded 50′000 cells/cm^2 on 96-well plates (Falcon) and incubated under condition described above for 6 days. Before starting the assay, cells were washed 2 times with pre-warmed Dulbecco's MEM with Glutamax-I (catalog number 61965) (Invitrogen AG, Basel, CH), supplemented with 1% non essential amino acids, 1% sodium pyruvate, 50 μg/ml gentamycin (Invitrogen AG) (DMEM). Cells were then incubated for 15 min at 37° C. and 120 rpm in DMEM with or without the specified concentrations of test compounds under investigation. After this pre-incubation, cells were incubated in DMEM containing [propyl-3H]-dihydro-FK506 (3H-tacrolimus, 1 μCi/ml, 34 nM) and with or without the specified concentrations of test compounds for 1 hour at 37° C. and 120 rpm. During this 1-hour incubation period, influx and efflux of the substrate, ^3H-tacrolimus, occur. After the 1-hour incubation period, assay was terminated by placing the assay plate on ice and washing the cells twice with ice-cold DMEM. Determination of cell associated ^3H-tacrolimus was performed by addition of Insta Gel and scintillation liquid to trypsinized cells followed by analysis on a scintillation counter (Packard TriCarb2000, Can berra Packard S.A.). The results are expressed as: % of control=100×[^3H-tacrolimus conc. with test compound]/[^3H-tacrolimus conc. with vehicle]

male db/db mice = experiment: 4-week study in db/db mice; assay type: in vivo
Description: The animals are maintained (starting at 7-week old) on a 12-hr light and 12-hr dark cycle, and provided with commercial rodent chow, LabDiet® 5K52, and water ad libitum.

[2] = test system: diet-induced obese mice (C57Bl/6, 60% high fat diet); experiment: Diet induced obese mice: IP-GTT and hyperinsulinemic euglycemic clamp; assay type: in vivo; conditions: 10 mg/kg I.P. daily
Protocol: Twenty-three (23) week old C57Bl/6 mice are placed on 60% high fat diet (HFD). After 9 weeks of HFD, mice are injected daily with either vehicle (PBS/NaCO3) or fisetin-3-O-methylphosphonate (compound 3) at a dosage of 10 mg/kg delivered via I.P. injection. HFD is continued throughout the injection period. After 2 weeks (week 10 and 11) of injection, mice are tested for basal blood (non-fasted) glucose levels by tail blood withdrawal. After 3 weeks (week 12) of injection, IP glucose tolerance test (IP-GTT) is performed at a dose of 1 gm dextrose per kilogram body weight. After 4 weeks (week 13) of injection, cannulation surgery is performed on anesthetized mice. Mice are allowed to recover 6 days. After 6 days, hyperinsulinemic euglycemic clamp studies are performed on the mice. After 7 weeks (week 16) of injections, a second IP-GTT is performed on the mice. Three days after the second IP-GTT, mice are sacrificed and blood and tissue samples are collected for further analysis.

[3] = test system: BB19 cells, human BCECs (brain capillary endothelial cells); experiment: Cyclosporin uptake assay; assay type: cell-based; conditions: 0.1 μM test compound; 1 hour incubation
Protocol: as §1, §2, §3
The cyclosporin uptake assay was performed similarly as described above for tacrolimus uptake assay except that ^3H-cyclosporin was used in place of ^3H-tacrolimus.

male C57BL/6 mice = experiment: Plasma and liver triglyceride in C57BL/6 mice; assay type: in vivo
Protocol: Experimental Design: This study is a 2-week study conducted with male C57BL/6 mice (24 animals, 3 treatment arms, 8 rats/arm) 9-week old at the start of compound treatment. The animals are maintained (starting at 8-week old) on a 12-hr light and 12-hr dark cycle, and provided with commercial rodent chow Purina 5001 and water ad libitum.
The stock solution of vehicle (HCO-60) is composed of 200 mg of HCO-60 per mL of 80% alcohol. Vehicle is prepared by diluting the HCO-60 stock solution 1:10 with saline. Compound 3 stock solutions are prepared in HCO-60 stock solution and diluted with saline or vehicle to the appropriate dose concentration.
Tail-vein-blood samples are collected from each rat 24 hour after the last treatment (day-14) for plasma triglyceride determination. Animals are sacrificed to obtain liver for triglyceride determination.

ZDF rats [4] = experiment: Oral glucose tolerance test (OGTT) in ZDF rats after the 4 week study; assay type: in vivo; conditions: glucose 2 g/Kg PO
Protocol: Following the 4 week study described in Example 26 above, the animals were fasted for 12 hours and on day-29, pre-drug blood samples are collected and glucose level and insulin level are measured. The animals are treated intraperitoneally (i.p.) with the following compounds:
Thirty (30) minutes after the treatment, pre-glucose blood samples are collected and the animals are then dosed with glucose (2 g/Kg, PO). Tail vein blood samples are collected at 30, 60, 90 and 120 minutes. Glucose levela and insulin leveal are measured. FIG. 31 show the plasma glucose level measured during OGTT. […] FIG. 32 show the plasma insulin level measured during OGTT. Phosphonated pyrone analogs raise insulin output in response to OGTT.

ZDF rats [5] = experiment: Pancreas histopathology, insulin staining and TUNEL in ZDF rats; assay type: in vivo; conditions: following four weeks of daily treatment
Description: Pancreas samples from Example 26 are stored in 10% NBF and used in this study. All tissue samples were processed through graded alcohols, cleared in xylene and infiltrated and embedded into paraffin. For the pancreas four 4 micron sections were cut, one was stained with Hematoxylin and Eosin for histopathology, two were immunohistochemically stained with an antibody to insulin to determine beta cell mass and one was stained for apoptosis with the tunel technique.
The insulin staining procedure was performed as follows: Endogenous peroxidase activity was inhibited by incubation in 3% hydrogen peroxide. Non-specific staining was blocked with DAKO Protein Block Serum-Free (Dako, Carpinteria, Calif.). Insulin positive cells were immunohistochemically stained with a polyclonal guinea pig anti-swine insulin antibody at room temperature for 30 minutes (Dako, Carpinteria, Calif.). After incubation with primary antibody, the tissue sections were sequentially incubated with Envision+ HRP Rabbit (Dako, Carpinteria, Calif.). Staining was developed with Liquid DAB+ (Dako, Carpinteria, Calif.) and counterstained with hematoxylin.
Pancreas samples were stained for apoptosis as follows: 4 micron sections were cut and stained for TUNEL utilizing the following kit In Situ Cell Death Detection Kit, AP (Roche Applied Science, catalog 11 684 809 910).

male ZDF rats = experiment: 4 week study in ZDF rats (compound 2, compound 3); assay type: in vivo
Description: Seven week old male ZDF rats are used for the study.
Experimental Design: This study is a 4 week study Using 32 7-week old male ZDF rats, divided into 4 treatment arms (8 rats/arm).

[6] = is known to be; cited from earlier work

O=c1c(OCP(=O)(O)O)c(-c2ccc(O)c(O)c2)oc2cc(O)ccc12 [Compound 3, Fisetin-3-O-methylphosphonic acid]
activity at 0.1 µM [1]: 44%
body weights (male db/db mice; 4 weeks of daily treatment): essentially identical that of vehicle treated animals
liver triglyceride at sacrifice (day-29) (male db/db mice; compound 3 10 mg/kg daily i.p.): significantly lower than vehicle treated mice
plasma cholesterol levels on Day-28 (male db/db mice; compound 3 10 mg/kg daily i.p.): significantly lower than vehicle or rosiglitazone treated mice
plasma triglyceride levels on Day-28 (male db/db mice; compound 3 10 mg/kg daily i.p.): significantly lower than vehicle or rosiglitazone treated mice
plasma glucose level on Day-28 (male db/db mice; daily i.p., compound 3 30 and 10 mg/kg, rosiglitazone 10 mg/kg): lower than vehicle treated control mice
basal glucose [2]: reduces basal glucose
hepatic glucose output [2]: impacts hepatic glucose output; also recorded: reduces hepatic glucose output
insulin output in response to glucose challenge [2]: less insulin output is required
tissue glucose uptake during hyperinsulinemic euglycemic clamp [2]: enhances tissue glucose uptake
response to IP glucose challenge ([2]; IP-GTT 1 gm dextrose per kilogram): improves response to glucose challenge
cell associated ^3H-cyclosporin uptake, % of control [3]: 71 % of control
liver triglyceride (male C57BL/6 mice; 30 mg/kg daily i.p. for 13 days, compared to vehicle): significantly reduces liver triglyceride
plasma triglyceride (male C57BL/6 mice; daily i.p. for 13 days, 30 and 3 mg/kg): reduces plasma triglyceride
plasma insulin level during OGTT (ZDF rats [4]): raises insulin output
plasma glucose level during OGTT (ZDF rats [4]; compound 2 100 mg/kg, compound 3 50 mg/kg i.p.): protect against hyperglycemia
islet cell apoptosis (ZDF rats [5]; TUNEL): decreases in islet cell apoptosis
decrease in islet vacuolar degeneration (inhibition) (ZDF rats [5]): 43%
decrease in pancreatic inflammation (inhibition) (ZDF rats [5]): 35%
plasma insulin levels (male ZDF rats; 4 weeks daily i.p., compared to vehicle treated animals): require lower insulin levels to maintain nomal glucose levels
plasma glucose levels (male ZDF rats; 4 weeks daily i.p., compound 2 100 mg/kg, compound 3 100 mg/kg day 4 and 5, 50 mg/kg day 6-28, rosiglitazone 6 mg/kg): maintains steady glucose levels
glycated hemoglobin levels (% HbA1c) at termination (male ZDF rats; compared to vehicle treated animals): lower glycated hemoglobin levels
triglycerides (male ZDF rats; day 14 and day 21, over vehicle controls): marked decreases in triglycerides

O=c1c(O)c(-c2ccc(O)c(O)c2)oc2cc(O)cc(O)c12 [quercetin aglycone, quercetin]
serum half-life [6]: 19 to 25 h
